Experiments:
Format in all cases: cell-based
mPTP-active Daoy cell = test: CellTiter-Glo cell viability inhibition, mPTP-active Daoy cell; conditions: Homo sapiens; Daoy cell transfected with empty virus vector; CellTiter-Glo; read-out: mPTP-active Daoy cell (IC50)
mPTP-inactive Daoy cell = test: CellTiter-Glo cell viability inhibition, mPTP-inactive Daoy cell; conditions: Homo sapiens, Daoy cell transfected with PPIF shRNA vector
ov-NNMT NCI-H82 cell = test: CellTiter-Glo cell viability inhibition, ov-NNMT NCI-H82 cell; conditions: Homo sapiens, NCI-H82 cell overexpressing NNMT protein
Excerpt: (§1) The expression of NNMT protein in NCI-H82 cell was overexpressed by inserting the NNMT gene into NCI-H82 cell using a viral vector, and the NNMT protein-overexpressing NCI-H82 cell (ov-NNMT NCI-H82 cell) was obtained. The control NCI-H82 cell (Con-NCI-H82 cell) was obtained by transfecting NCI-H82 cell with empty virus vector without carrying NNMT gene. The expressing content of NNMT protein in the Con-NCI-H82 cell and ov-NNMT NCI-H82 cell was detected using Western Blot assay (as shown in FIG. 3), it could be seen from FIG. 3 that the NNMT protein was overexpressed in the ov-NNMT NCI-H82 cell compared with the expression level of NNMT protein in the Con-NCI-H82 cell.

Con-NCI-H82 cell = test: CellTiter-Glo cell viability inhibition, Con-NCI-H82 cell; conditions: Homo sapiens, NCI-H82 cell transfected with empty virus vector
Excerpt: as §1

Structure (SMILES)	IC50 (mPTP-active Daoy cell) [nM]	IC50 (mPTP-inactive Daoy cell) [nM]	IC50 (ov-NNMT NCI-H82 cell) [µM]	IC50 (Con-NCI-H82 cell) [µM]
c1ccc([P+](c2ccccc2)(c2cccc3[nH]ccc23)c2cccc3[nH]ccc23)cc1 [AB35419]	740	150	0.56	0.05
c1ccc([P+](c2ccccc2)(c2ccccc2)c2ccc3cc[nH]c3c2)cc1 [AB35431]	2000	650	1.03	0.32
c1ccc([P+](c2ccccc2)(c2ccc3cc[nH]c3c2)c2ccc3cc[nH]c3c2)cc1 [AB35437]	920	300	1.21	0.27
c1ccc([P+](c2ccccc2)(c2ccccc2)c2cccc3cc[nH]c23)cc1 [AB35449]	7120	2440	6.47	2.17
c1ccc([P+](c2ccccc2)(c2ccccc2)c2cccc3[nH]ccc23)cc1 [AB35450]	430	100	1.56	0.23
c1ccc([P+](c2ccccc2)(c2ccc3[nH]ccc3c2)c2ccc3[nH]ccc3c2)cc1 [AB35451]	1220	280	0.96	0.13
c1ccc([P+](c2ccccc2)(c2cccc3[nH]ccc23)c2cncc3[nH]ccc23)cc1 [AB35452]	5390	820	2.34	0.63
c1ccc([P+](c2ccccc2)(c2cccc3cc[nH]c23)c2cccc3cc[nH]c23)cc1 [AB35462]	28900	12700	20.6	6.48
c1ccc([P+](c2ccccc2)(c2cccc3[nH]ccc23)c2ccnc3[nH]ccc23)cc1 [AB35471]	4350	810	2.16	0.34
c1ccc([P+](c2ccccc2)(c2cccnc2)c2ccc3cc[nH]c3c2)cc1 [AB35472]	38400	10700	19.4	8.11
c1ccc([P+](c2ccccc2)(c2cccnc2)c2ccc3[nH]ccc3c2)cc1 [AB35473]	18000	2950	12.3	3.27
c1ccc([P+](c2ccccc2)(c2ccncc2)c2cccc3[nH]ccc23)cc1 [AB35474]	18400	2450	13.6	3.66
c1ccc([P+](c2ccccc2)(c2cncc3[nH]ccc23)c2cncc3[nH]ccc23)cc1 [AB35477]	24200	10300	> 50	25.3
c1ccc([P+](c2ccccc2)(c2ccncc2)c2ccc3cc[nH]c3c2)cc1 [AB35479]	25100	6510	25.5	6.36
c1ccc([P+](c2ccccc2)(c2cccc3[nH]ncc23)c2cccc3[nH]ncc23)cc1 [AB35480]	> 50000	6260	40.1	13.8
c1ccc([P+](c2ccccc2)(c2ccccc2)c2cccc3[nH]ncc23)cc1 [AB35481]	16700	2500	9.82	2.45
c1ccc([P+](c2ccccc2)(c2cccc3[nH]ccc23)c2cccc3[nH]ncc23)cc1 [AB35482]	3970	610	2.13	0.41
c1ccc([P+](c2ccccc2)(c2ccc3cc[nH]c3c2)c2ccccn2)cc1 [AB35507]	4080	1730	3.96	0.78
COc1ccc([P+](c2ccc(OC)cc2)(c2ccc(OC)cc2)c2cccc3[nH]ccc23)cc1 [AB35527]	1210	250	1.45	0.36
c1ccc([P+](c2ccccc2)(c2ccc3[nH]ccc3c2)c2ccc3[nH]ncc3c2)cc1 [AB35529]	4110	880	1.87	0.38
c1ccc([P+](c2ccccc2)(c2ccc3[nH]ccc3c2)c2cnc3[nH]ccc3c2)cc1 [AB35537]	2240	790	2.33	0.51
c1ccc([P+](c2ccccc2)(c2ccc3cc[nH]c3c2)c2ccc3cn[nH]c3c2)cc1 [AB35538]	5940	1710	3.86	0.97
c1ccc([P+](c2ccccc2)(c2ccc3[nH]ccc3c2)c2ccc3[nH]cnc3c2)cc1 [AB35539]	12200	3880	6.03	1.55
c1ccc([P+](c2ccccc2)(c2ccc3cc[nH]c3c2)c2ccc3nc[nH]c3c2)cc1 [AB35548]	8090	2640	7.14	2.22

Structure (SMILES)	IC50 (mPTP-active Daoy cell) [nM]	IC50 (mPTP-inactive Daoy cell) [nM]	IC50 (ov-NNMT NCI-H82 cell) [µM]	IC50 (Con-NCI-H82 cell) [µM]
c1ccc([P+](c2ccccc2)(c2ccc3cc[nH]c3c2)c2cnc3cc[nH]c3c2)cc1 [AB35549]	10500	3850	9.57	3.18
c1ccc([P+](c2ccccc2)(c2cnc3[nH]ccc3c2)c2cccc3[nH]ccc23)cc1 [AB35563]	1510	560	2.09	0.46
Cn1ccc2c([P+](c3ccccc3)(c3ccccc3)c3cccc4[nH]ccc34)cccc21 [AB35564]	390	50	1.32	0.13
c1ccc([P+](c2ccccc2)(c2ccc3[nH]cnc3c2)c2cccc3[nH]ccc23)cc1 [AB35569]	12200	2340	5.34	1.66
c1ccc([P+](c2ccccc2)(c2cnc3cc[nH]c3c2)c2cccc3[nH]ccc23)cc1 [AB35570]	15600	3990	11.8	3.34
Cn1ccc2cc([P+](c3ccccc3)(c3ccccc3)c3ccccc3)ccc21 [AB35571]	1380	270	1.43	0.19
c1ccc([P+](c2ccccc2)(c2cccc3[nH]ccc23)c2cccc3[nH]cnc23)cc1 [AB35572]	10300	3340	1.95	0.28
Cn1ccc2c([P+](c3ccccc3)(c3ccccc3)c3ccccc3)cccc21 [AB35573]	1260	240	1.37	0.14
Cn1cc2c([P+](c3ccccc3)(c3ccccc3)c3cccc4c3ccn4C)cccc2n1 [AB35574]	8350	2450	2.56	0.41
c1ccc([P+](c2ccccc2)(c2ccccc2)c2ccc3c(ccn3CCN3CCOCC3)c2)cc1 [AB35576]	1600	460	2.93	0.51
Cn1ccc2c([P+](c3ccccc3)(c3ccccc3)c3cccc4[nH]ncc34)cccc21 [AB35577]	3890	1210	4.54	1.08
Cn1ccc2c([P+](c3ccccc3)(c3ccccc3)c3cccc4c3cnn4C)cccc21 [AB35578]	3800	1450	4.93	1.27
c1ccc([P+](c2ccccc2)(c2ccccc2)c2cccc3c2ccn3CCN2CCCCC2)cc1 [AB35579]	1210	270	2.77	0.51
c1ccc([P+](c2ccccc2)(c2ccc3[nH]ncc3c2)c2cccc3[nH]ccc23)cc1 [AB35580]	4570	1160	3.66	0.55
c1ccc([P+](c2ccccc2)(c2ccc3cn[nH]c3c2)c2cccc3[nH]ccc23)cc1 [AB35581]	5340	1740	4.81	1.26
c1ccc([P+](c2ccccc2)(c2ccc3[nH]ccc3n2)c2cccc3[nH]ccc23)cc1 [AB35584]	1340	460	1.73	0.24
c1ccc([P+](c2ccccc2)(c2ccccc2)c2cccc3c2ccn3CCN2CCOCC2)cc1 [AB35585]	3540	1220	3.34	0.52
c1ccc([P+](c2ccccc2)(c2cc3cc[nH]c3cn2)c2cccc3[nH]ccc23)cc1 [AB35588]	1140	380	1.78	0.21
c1ccc([P+](c2ccccc2)(c2ccc3cc[nH]c3n2)c2cccc3[nH]ccc23)cc1 [AB35589]	1530	360	2.34	0.32
COc1ccc([P+](c2ccc(OC)cc2)(c2cccc3[nH]ccc23)c2cccc3[nH]ccc23)cc1 [AB35596]	1320	250	1.56	0.25
c1ccc([P+](c2ccccc2)(c2ccc3[nH]ccc3c2)c2ccc3[nH]ccc3n2)cc1 [AB35597]	1180	240	1.85	0.18
c1ccc([P+](c2ccccc2)(c2ccc3[nH]ccc3c2)c2cc3[nH]ccc3cn2)cc1 [AB36405]	5450	1890	3.72	0.98
COc1ccc([P+](c2ccc(OC)cc2)(c2cccc3c2ccn3C)c2ccnc3c2ccn3C)cc1 [AB36407]	1130	240	1.55	0.24

Source: patent publication US20250304608A1, “PHOSPHORUS COMPOUND AND USE THEREOF” (SHANGHAI SHIJIANG BIOTECHNOLOGY CO., LTD., priority 2022, published 2025)
